# In patent US10154996B2, “Fungicidal agent” (priority 2014, dated 2018):
# “And” between values parts separate entries of the source, which are not always exact repeats. Equal entries are not always repeated.
# Columns and labels:
# [1] = Solubility in fats / oil solutions; assay type: physicochemical
# Excerpt: (§1) However, this compound is very poorly soluble in aqueous media and in fats. The maximum value of solubility of the known drug in water is 0.002%, and for fats it is no more than 0.001% (octanol, which is a common model of lipids). […] Solutions with such concentration of the active substance are not sufficiently effective. At the same time the task of improvement of efficiency of use of a fungicidal agent in the form of solutions for use in human and veterinary medicine in the form of injections and inhalations and for treatment of a variety of materials and agricultural products is extremely urgent.
# [2] = system: Pityrosporum orbiculare-Malassezia furfur; assay: Treatment of scaly skin disease (Tinea versicolor, Pityriasis versicolor) in patients; assay type: in vivo; conditions: cotton swab 2 times a day, 7 days
# Method: Treatment of a Fungal Disease of the Skin—Scaly Skin Disease (Tinea Versicolor, Pityriasis versicolor). The disease is caused by a fungus called Pityrosporum orbiculare-Malassezia furfur (mycelial form). The following was prepared for the study: A 0.1% oil (olive oil) solution of the presented preparation and a 0.002% aqueous solution of the prototype substance. As a reference olive oil was used. The study included three groups of patients. Each group included 2 patients with this pathology. Treatment duration was 7 days. The drug was applied with a cotton swab 2 times a day—in the morning and in the evening.
# [3] = system: Aspergillus niger and Penicillium notatum; assay: Protection of construction wood against fungal attacks; conditions: 5 days at 30° C.; for growth of test organisms on the boards: humid environment
# Method: To test the preparation boards by the dimensions of 20×40×2 cm were used. The boards were divided into three groups. Group 1: the boards were impregnated with a 0.3% aqueous solution of the presented formulation. The impregnation was carried out by twofold application of the solution by means of a diffuser with an intermediate drying. Group 2: the boards were impregnated with a 0.02% aqueous solution of the prototype preparation. The impregnation was carried out by twofold application of the solution by means of a diffuser with an intermediate drying. Group 3 (control): the boards were impregnated with distilled water. The impregnation was carried out by twofold application of water by means of a diffuser with an intermediate drying. The boards dried after treatment were soaked in water for two hours, after which they were coated with Aspergillus niger and Penicillium notatum fungi cultures at opposite ends of one side. The boards were placed in thermostats for 5 days at the temperature of 30° C. in a humid environment. After incubation, the boards were visually inspected and inoculations were made from their surface onto a nutrient medium (Sabouraud).
# Aspergillus niger = assay: Aspergillus pneumonia in mice, lung colonization after inhalation treatment; assay type: in vivo, white scrub mice
# Method: The tests were conducted on white scrub mice (female, 6-8 weeks) received from “Rappolovo” breeding nursery (Leningrad reg.), which were kept under supervision for two weeks prior to the experiments on a standard diet in regulated vivarium conditions. Selection of the animals for the experiment group was conducted by the random selection method. For propagation of aspergillus pneumonia, the white scrub mice received a single intraperitoneal injection of a cyclophosphamide solution (150 mg/kg). After 3 days, the mice received a single intraperitoneal injection of a hydrocortisone solution (250 mg/kg). Twenty-four hours after administration of hydrocortisone the mice were intranasally infected with a suspension of Aspergillus niger (approximately 10^7 cells/ml) under ether narcosis. On day 5 after infection 5 animals from each group were taken to study lung colonization (euthanasia in the rodents was performed by overdose of ether). Lung tissues were used to prepare homogenates, in which the titer of Aspergillus fungi was determined. Observation over the remaining mice was carried out for 14 days after infection to record their mortality. The following groups of animals infected with Aspergillus niger were formed in the experiment. 1. Control groups: K1, K2, K3; the animals were exposed to an aerosol of isotonic sodium chloride solution. 2. Groups E1, E2, E3; the animals were administered a 0.1% aqueous solution of the presented preparation in the form of inhalations. 3. Groups P1, P2; the animals were administered an aqueous solution of the prototype fungicidal agent in the form of inhalations in concentrations of 0.002% and 0.001% respectively. The animals were placed into an aerosol chamber (12 liters) for 30 minutes, during which period 500 mL of air pass through their lungs. “OMRON U1” (Japan) ultrasonic nebulizer was used was used as an aerosol generator. To maintain a constant aerosol concentration in the chamber, a pneumatic vortex generator was used in the pulsed spraying mode ensuring a stable aerosol with particle size of 3 microns. The animals were placed in immobilization containers and exposed to the obtained aerosol for 30 minutes 1 time per day for 3 days starting from day 1 after the infection. Samples of homogenized lung tissue were used to prepare a number of successive dilutions followed by sowing on Saburo medium.
# Candida fungi = assay: Treatment of vulvovaginal candidiasis in patients; assay type: in vivo; conditions: douchings morning and evening, 7 days
# Method: Treatment of Vulvovaginal Candidiasis. In the experiment, the patients, who suffered vulvovaginal candidiasis caused by Candida fungi, were treated using the following aqueous solutions: 1) 0.1% solution of the presented drug (3 persons), 2) 0.002% solution of the prototype drug (3 people). The treatment in the form of dualfold (in the morning and in the evening) douchings was performed for 7 days. The treatment efficacy was assessed by the clinical presentation and the results mycological examination (inoculations on Saburo medium).
# Solubility in water = assay type: physicochemical; conditions: for solubility in water: maximum concentration in water
# Excerpt: as §1
# Leveillula taurica = assay: Treatment of powdery mildew on tuberous begonias; assay type: in vivo, Begonia tuberosa hybridum; conditions: spray of 0.1% aqueous solution once a day for 7 days
# Method: The study was conducted on tuberous begonias (Begonia tuberosa hybridum), infected with powdery mildew. Powdery mildew affects many plants, including trees and shrubs. Powdery mildew affects chrysanthemums, begonias, roses; at that a white, sometimes darkening, plaque appears green parts of the plant. The disease is transmitted by airborne spores. The tested plants were infected with spores of a fungus (Leveillula taurica) when exposed up to appearance of a white plaque on the leaves. Three leaves on each plant were infected. After appearance of the plaque the plants in control group (three plants) were isolated from the three plants treated with a spray of a 0.1% aqueous solution of the presented preparation. The treatment was performed once a day for 7 days. After the treatment was complete, observation over the plants was continued for another three weeks.
# [4] = system: fungi of the Microsporum genus; assay: Treatment of ringworm in cats; assay type: in vivo
# Excerpt: The preparation was used in treatment of ringworm in cats (two animals) caused by fungi of the Microsporum genus and characterized by appearance of small round bald patches on the face and ears of the animal. The preparation in the form of a 0.1% aqueous solution was applied onto the affected area three times a day for 6 days.
# [5] = boards impregnated with 0.02% aqueous solution
# [6] = lung homogenate day 5, 0.001% aqueous solution, inhalation, group P2
# [7] = lung homogenate day 5, 0.002% aqueous solution, inhalation, group P1
# [8] = boards impregnated with 0.3% aqueous solution
# [9] = 0.1% aqueous solution on affected area three times a day for 6 days
compound,measurement,setting,value
"2.4-dioxo-5-(2-hydroxy-3.5-dichlorobenzylidene)amino-1.3-pyrimidine [Prototype, reference compound]",solubility in fats,[1]; octanol as common model of lipids,no more than 0.001%
same,Complete cure,[2]; 0.002% aqueous solution,Absent
same,growth from inoculations on nutrient medium (Sabouraud),[3]; [5],later spread in the nutrient medium
same,growth of test organisms on the boards,[3]; [5],a growth of the inoculated test bacteria can be detected
same,Number of colonies (in different dilutions) 10^−2,Aspergillus niger; [6],37
same,Number of colonies (in different dilutions) 10^−4,Aspergillus niger; [6],2
same,Number of colonies (in different dilutions) 10^−2,Aspergillus niger; [7],26
same,Number of colonies (in different dilutions) 10^−4,Aspergillus niger; [7],1
same,Complete cure,Candida fungi; 0.002% aqueous solution,Not reached
same,Mycological cure (reduction in the number of fungi inoculated on a solid medium),Candida fungi; 0.002% aqueous solution,1.7-fold reduction in the number of
same,solubility in water,Solubility in water,0.002%
N#CSc1cc(C=Nc2c[nH]c(=O)nc2O)c(O)c(SC#N)c1 [presented preparation],growth of fungi after flushing off the leaf and inoculation on a nutrient medium,Leveillula taurica,no growth of the fungi was observed
same,increase or spread of the fungus on the plant,Leveillula taurica; observation three more weeks,no increase or spread of the fungus to other parts of the plant occur
same,solubility for oil solutions,[1]; oil solutions,0.25-0.3%
same,Complete cure,[2]; 0.1% oil (olive oil) solution,Reached
same,growth from control inoculations on nutrient medium (Sabouraud),[3]; [8],did not lead to a growth on the nutrient medium
same,growth of test organisms on the boards,[3]; [8],No growth of the test organisms was registered
same,inflammatory manifestations,[4]; [9],disappearance of inflammatory manifestations was reported
same,size of affected areas,[4]; [9],the affected areas ceased to increase
same,growth from inoculations of swabs from the affected area after treatment,"[4]; 0.1% aqueous solution three times a day for 6 days, nutrient media",did not lead to growth on nutrient media
same,Number of colonies (in different dilutions) 10^−2,"Aspergillus niger; lung homogenate day 5, Saburo medium, 0.1% aqueous solution, inhalation 30 min once daily for 3 days, groups E1-E3",2 and 4
same,Complete cure,Candida fungi; 0.1% aqueous solution,Reached
same,Mycological cure (reduction in the number of fungi inoculated on a solid medium),Candida fungi; 0.1% aqueous solution,A tenfold reduction in the number
same,solubility in water,Solubility in water,0.3-0.4%
same,increase in solubility versus prototype,Solubility in water; water and oil solutions,more than a hundred-fold
